Reference: paper PMC7842926, “Synergistic effect and ultrastructural changes in Trypanosoma cruzi caused by isoobtusilactone A in short exposure of time” (PLoS ONE, 2021)
pIC50: −log10 of the molar value.

Experiments:
[1] = system: epimastigote forms of Y strain (TcII); assay: Epimastigote cell viability assay (MTS/PMS), Y strain; format: cell-based, Trypanosoma cruzi
Procedure: (§1) Epimastigote forms of three strains of T. cruzi, including Dm28c (TcI), CL Brener (TcVI), and Y strain (TcII), were maintained in liver infusion tryptose (LIT) medium supplemented with 10% fetal bovine serum at 28°C [16] were kindly provided by Oswaldo Cruz Institute/Fiocruz. For the experiments, exponential phase cultures were used. All assays were performed in triplicates in 96-well plates.
(§2) The absorbance of the formazan was measured at 490 nm using a microplate reader (Asys Expert Plus -Biochrom). In parallel, we determined the effect of 1% DMSO (negative control) and benznidazole (positive control) on the viability of epimastigotes and a replicate of each treatment was performed by fixing the epimastigotes with 4% paraformaldehyde prior to the addition of MTS/PMS (basal absorbance control).
(§3) The 50% cytotoxic concentration (CC50), x % inhibitory concentration (ICx = IC25, IC50, IC75, or IC90), and 50% lethal concentration (LC50) values were obtained from the percentage of inhibition/death versus log concentration of each compound, by nonlinear regression with variable slope and automatic withdrawal of outliers with ROUT coefficient (Q = 5). […] Graphpad Prism software version 7.04 was used for all regressions.

[2] = system: amastigotes of T. cruzi (Dm28c); design: method as in PMID 32327956; conditions: 24 h of treatment; cited from earlier work
[3] = system: amastigotes and trypomastigotes; assay: Ultrastructural analysis by transmission and scanning electron microscopy; format: cell-based, Trypanosoma cruzi
Procedure: Trypomastigotes were incubated with isoobtusilactone A (LC50/4 h of trypomastigote) for 2 h. The parasites were washed with cacodylate buffer (0.1 M) and fixed in cacodylate buffer (0.1 M) containing paraformaldehyde (4%) and glutaraldehyde (2.5%). The cells were then adhered to glass cover slips previously coated with poly-L-lysine, postfixed with osmium tetroxide (1%), dehydrated with graded ethanol series, and dried using a critical point dryer (Leica CPD 300). Finally, the samples were coated with a layer of gold in a sputtering device (Leica EM ACE 200).
The cells were fixed, dehydrated, and dried following the same procedure described above. Cell membrane of the host cells was randomly removed with the aid of an adhesive tape and the resulting samples were coated with a layer of gold in a sputtering device (Leica EM ACE 200).
Trypomastigotes were treated following the same procedure as described for scanning microscopy. After treatment, the cells were washed with cacodylate buffer (0.1 M) and fixed in cacodylate buffer (0.1 M) containing paraformaldehyde (4%) and glutaraldehyde (2.5%).
All samples were postfixed in osmium tetroxide (1%), dehydrated with acetone series, and embedded in EMbed 812® resin. […]

[4] = system: epimastigote forms of CL Brener (TcVI); assay: Epimastigote cell viability assay (MTS/PMS), CL Brener; format: cell-based, Trypanosoma cruzi
Procedure: as §1, §2, §3

[5] = system: epimastigote forms of strain Dm28c; assay: Inhibition of metacyclogenesis; format: cell-based; conditions: Trypanosoma cruzi, 2 h exposure, then 72 h in drug-free medium, p = 0.009, read-out: less trypomastigotes than control (inhibition of metacyclogenesis)
Procedure: After the stress, the cells were washed and incubated with TAU drug-free supplemented with 10 mM L-proline, 50 mM L-sodium glutamate, 2 mM L-sodium aspartate and 10 mM D-glucose (TAU3AAG medium) for 72 h. The total number of differentiated trypomastigotes was counted in Neubauer's chamber to assess the inhibition percentage.

In the case of `C=C1OC(=O)/C(=C/CCCCCCCCCCCCC)[C@@H]1O` [Isoobtusilactone A, isoobtusilactone A], the pIC50 ([1]; Trypanosoma cruzi, 4 h of treatment, read-out: IC50 epimastigotes strain Y) is listed as 4.49, the “SI (selectivity index)” value ([1]; epimastigotes strain Y, 4 h, Vero cells) is listed as 11.4 and the “inhibition of growth of amastigote forms” value [2] is listed as “more than 70%”. The “ultrastructure of treated intracellular amastigotes (TEM)” value ([3]; LC50/4 h of amastigotes, 4 h) was “strong and acute damage to the unique mitochondria”, the “ultrastructure of treated trypomastigotes (TEM)” value ([3]; LC50/4 h of trypomastigote, 2 h) was “swelling and loss of internal content of mitochondria” and the pIC50 ([4]; Trypanosoma cruzi, 4 h of treatment, read-out: IC50 epimastigotes strain CL Brener) was 4.21. The “SI (selectivity index)” value ([4]; epimastigotes strain CL Brener, 4 h, Vero cells) was 6.0 and the inhibition at 2.75 µM [5] was 43%.
